Activity calls are given as the source filed them. The rule behind the calls is not given here.
System: rodent carcinogenicity bioassays, tumor incidence
Experiment: CCRIS carcinogenicity studies
Procedure, shortened: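 NCI-built, expert-reviewed records of carcinogenicity and related test outcomes (mutagenicity, tumor promotion/inhibition) compiled from published and report sources, historical span 1985-2011, not updated.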

`CCNC(=O)N(CCO)N=O` was tested, and the carcinogen call (Species: RAT, Strain/Sex: F344/FEMALE, Route: INTRAVESICULAR, Dose: 0, 3.6 MG 2/WK FOR 30 WK (STUDY DURATION: LIFETIME), Tumor Site: Type of Lesion: BLADDER: TUMOR, UTERUS: TUMOR) was “active; positive”, the carcinogen call (Species: RAT, Strain/Sex: F344/FEMALE, Route: ORAL, Dose: 0, 37, 74 MG/L IN DRINKING WATER 5 D/WK FOR 30 WK (STUDY DURATION: LIFETIME), Dose: 0, 37, 74 MG/L IN DRINKING WATER 5 D/WK FOR 30 WK (STUDY DURATION: LIFETIME), Tumor Site: Type of Lesion: MAMMARY GLAND: CARCINOMA) was “active; positive” and the carcinogen call (Species: RAT, Strain/Sex: F344/MALE, Route: GAVAGE, Dose: 0, 3.6 MG IN 0.2 ML ETHYL ACETATE/CORN OIL (1:1) 2/WK FOR 31 WK (TOTAL DOSE: 223 MG) (STUDY DURATION: 80 WK), Tumor Site: Type of Lesion: LIVER: CARCINOMA, LUNG: CARCINOMA OR ADENOMA, BRAIN: TUMORS, THYROID: CARCINOMA OR ADENOMA, PERITONEUM: MESOTHELIOMA, Tumor Site: Type of Lesion: LIVER: CARCINOMA, LUNG: CARCINOMA OR ADENOMA, BRAIN: TUMORS, THYROID: CARCINOMA OR ADENOMA, PERITONEUM: MESOTHELIOMA) was “active; positive”. The carcinogen call (Species: RAT, Strain/Sex: F344/MALE, Route: ORAL, Dose: 0, 37, 74 MG/L IN DRINKING WATER 5 D/WK FOR 30 WK (STUDY DURATION: LIFETIME), Dose: 0, 37, 74 MG/L IN DRINKING WATER 5 D/WK FOR 30 WK (STUDY DURATION: LIFETIME), Tumor Site: Type of Lesion: LIVER: TUMOR, LUNG: TUMOR, THYROID: FOLLICULAR TUMOR, MESOTHELIUM: TUMOR, NERVOUS SYSTEM: TUMOR, SKIN: TUMOR, Tumor Site: Type of Lesion: LIVER: TUMOR, LUNG: TUMOR, THYROID: FOLLICULAR TUMOR, MESOTHELIUM: TUMOR, NERVOUS SYSTEM: TUMOR, SKIN: TUMOR) was “active; positive”.

`c1ccc2c(c1)ccc1cc3ccc4c(c3cc12)CCCC4` was tested, and the carcinogen call (Species: MOUSE, Strain/Sex: SWISS/FEMALE, Route: DERMAL, Dose: 0, 37 UG IN ACETONE (0.2%) 2/WK FOR 70 WK FOR A TOTAL DOSE OF 0, 5.2 MG (STUDY DURATION: 100 WK), Dose: 0, 37 UG IN ACETONE (0.2%) 2/WK FOR 70 WK FOR A TOTAL DOSE OF 0, 5.2 MG (STUDY DURATION: 100 WK), Tumor Site: Type of Lesion: SKIN: CARCINOMA, SKIN: PAPILLOMA) was “active; positive”.

`Cc1ccc2c(c1)C1=Nc3ccccc3C3=Nc4ccccc4C(=N2)N31` was tested, and the carcinogen call (Species: MOUSE, Strain/Sex: ALBINO/MALE, FEMALE, Route: DERMAL, Tumor Site: Type of Lesion: SKIN: TUMOR) was “active; positive”.

In the case of `CC(C)=CCC/C(C)=C/C=O`, the carcinogen call (Species: MOUSE, Strain/Sex: B3C3F1/FEMALE (50), Route: ORAL, Dose: 0, 500, 1000, 2000 PPM IN MICROCAPSULES IN THE DIET FOR 2 YR (STUDY DURATION: 2 YR), Dose: 0, 500, 1000, 2000 PPM IN MICROCAPSULES IN THE DIET FOR 2 YR (STUDY DURATION: 2 YR), Tumor Site: Type of Lesion: LYMPHATIC SYSTEM: MALIGNANT LYMPHOMA) is reported as “equivocal”, the carcinogen call (Species: MOUSE, Strain/Sex: B6C3F1/MALE (50), Route: ORAL, Dose: 0, 500, 1000, 2000 PPM IN MICROCAPSULES IN THE DIET FOR 2 YR (STUDY DURATION: 2 YR), Dose: 0, 500, 1000, 2000 PPM IN MICROCAPSULES IN THE DIET FOR 2 YR (STUDY DURATION: 2 YR)) is reported as “inactive; negative” and the carcinogen call (Species: RAT, Strain/Sex: F344/FEMALE, Route: ORAL, Dose: 0, 1000, 2000, 4000 PPM IN MICROCAPSULES IN THE DIET FOR 2 YR (STUDY DURATION: 2 YR), Dose: 0, 1000, 2000, 4000 PPM IN MICROCAPSULES IN THE DIET FOR 2 YR (STUDY DURATION: 2 YR)) is reported as “inactive; negative”. The carcinogen call (Species: RAT, Strain/Sex: F344/MALE, Route: ORAL, Dose: 0, 1000, 2000, 4000 PPM IN MICROCAPSULES IN THE DIET FOR 2 YR (STUDY DURATION: 2 YR), Dose: 0, 1000, 2000, 4000 PPM IN MICROCAPSULES IN THE DIET FOR 2 YR (STUDY DURATION: 2 YR)) was “inactive; negative”.

With `CO[C@@H]1[C@@H](O[C@@H]2O[C@H](C)[C@@H](O[C@H]3C[C@@](C)(O)[C@@H](OC(=O)CC(C)C)[C@H](C)O3)[C@H](N(C)C)[C@H]2O)[C@@H](CC=O)C[C@@H](C)[C@@H](O)/C=C/C=C/C[C@@H](C)OC(=O)C[C@H]1OC(C)=O` the carcinogen call (Species: RAT, Strain/Sex: F344/FEMALE, Route: ORAL, Dose: 0, 1.25, 2.5% IN DIET FOR 104 WK (STUDY DURATION: 106 WK), Dose: 0, 1.25, 2.5% IN DIET FOR 104 WK (STUDY DURATION: 106 WK)) was “inactive; negative” and the carcinogen call (Species: RAT, Strain/Sex: F344/MALE, Route: ORAL, Dose: 0, 1.25, 2.5% IN DIET FOR 104 WK (STUDY DURATION: 106 WK)) was “inactive; negative”.

In the case of `O=[N+]([O-])c1ccccc1`, the carcinogen call (Species: MOUSE, Strain/Sex: B6C3F1/FEMALE, Route: INHALATION, Dose: 0, 5, 25, 50 PPM 6 HR/D 5 D/WK FOR 2 YR (STUDY DURATION: 2 YR), Dose: 0, 5, 25, 50 PPM 6 HR/D 5 D/WK FOR 2 YR (STUDY DURATION: 2 YR), Tumor Site: Type of Lesion: MAMMARY GLAND: ADENOCARCINOMA) is reported as “active; positive”, the carcinogen call (Species: MOUSE, Strain/Sex: B6C3F1/MALE, Route: INHALATION, Dose: 0, 5, 25, 50 PPM 6 HR/D 5 D/WK FOR 2 YR (STUDY DURATION: 2 YR), Dose: 0, 5, 25, 50 PPM 6 HR/D 5 D/WK FOR 2 YR (STUDY DURATION: 2 YR), Tumor Site: Type of Lesion: LUNG: ADENOMA, ADENOMA OR CARCINOMA, THYROID GLAND: FOLLICULAR CELL ADENOMA) is reported as “active; positive” and the carcinogen call (Species: RAT, Strain/Sex: F344/FEMALE, Route: INHALATION, Dose: 0, 1, 5, 25 PPM 6 HR/D 5 D/WK FOR 2 YR (STUDY DURATION: 2 YR), Dose: 0, 1, 5, 25 PPM 6 HR/D 5 D/WK FOR 2 YR (STUDY DURATION: 2 YR), Tumor Site: Type of Lesion: UTERUS: ENDOMETRIAL STROMAL POLYP) is reported as “active; positive”. The carcinogen call (Species: RAT, Strain/Sex: F344/MALE, Route: INHALATION, Dose: 0, 1, 5, 25 PPM 6 HR/D 5 D/WK FOR 2 YR (STUDY DURATION: 2 YR), Dose: 0, 1, 5, 25 PPM 6 HR/D 5 D/WK FOR 2 YR (STUDY DURATION: 2 YR), Tumor Site: Type of Lesion: LIVER: HEPATOCELLULAR ADENOMA, HEPATOCELLULAR ADENOMA OR CARCINOMA, KIDNEY: TUBULAR ADENOMA, TUBULAR ADENOMA OR CARCINOM) was “active; positive” and the carcinogen call (Species: RAT, Strain/Sex: STRAIN-CD/MALE, Route: INHALATION, Dose: 0, 1, 5, 25 PPM 6 HR/D 5 D/WK FOR 2 YR (STUDY DURATION: 2 YR), Dose: 0, 1, 5, 25 PPM 6 HR/D 5 D/WK FOR 2 YR (STUDY DURATION: 2 YR), Tumor Site: Type of Lesion: LIVER: HEPATOCELLULAR ADENOMA, HEPATOCELLULAR ADENOMA OR CARCINOMA) was “active; positive”.

`CC(C)(C)NC[C@H](O)COc1cccc2c1CCCC2=O` was tested, and the carcinogen call (Species: MOUSE, Strain/Sex: SWISS/MALE, Route: ORAL, Dose: 0, 12, 50, 200 MG/KG/D IN DIET FOR 80 WK (STUDY DURATION: 80 WK), Dose: 0, 12, 50, 200 MG/KG/D IN DIET FOR 80 WK (STUDY DURATION: 80 WK)) was “inactive; negative”, the carcinogen call (Species: RAT, Strain/Sex: WISTAR/FEMALE, Route: ORAL, Dose: 0, 0.5, 2, 5 MG/KG/D IN DIET FOR 2 YR (STUDY DURATION: 2 YR), Dose: 0, 0.5, 2, 5 MG/KG/D IN DIET FOR 2 YR (STUDY DURATION: 2 YR)) was “inactive; negative” and the carcinogen call (Species: RAT, Strain/Sex: WISTAR/FEMALE, Route: ORAL, Dose: 0, 5, 30, 180 MG/KG/D IN DIET FOR 2 YR (STUDY DURATION: 2 YR), Dose: 0, 5, 30, 180 MG/KG/D IN DIET FOR 2 YR (STUDY DURATION: 2 YR)) was “inactive; negative”. The carcinogen call (Species: RAT, Strain/Sex: WISTAR/MALE, Route: ORAL, Dose: 0, 0.5, 2, 5 MG/KG/D IN DIET FOR 2 YR (STUDY DURATION: 2 YR), Dose: 0, 0.5, 2, 5 MG/KG/D IN DIET FOR 2 YR (STUDY DURATION: 2 YR)) was “inactive; negative” and the carcinogen call (Species: RAT, Strain/Sex: WISTAR/MALE, Route: ORAL, Dose: 0, 5, 30, 180 MG/KG/D IN DIET FOR 2 YR (STUDY DURATION: 2 YR), Dose: 0, 5, 30, 180 MG/KG/D IN DIET FOR 2 YR (STUDY DURATION: 2 YR), Tumor Site: Type of Lesion: LIVER: HEPATOMA) was “active; positive”.

Reference: PubChem BioAssay AID1259411 (Chemical Carcinogenesis Research Information System (CCRIS), 2018)
